Reference: patent publication US9809562B2, “NAT10 modulators for treating or preventing laminopathies, aging and cancer” (CAMBRIDGE ENTERPRISE LIMITED, priority 2014, dated 2017)
Counter-ions that a name gives are not always drawn.

Key:
[1] = In vivo toxicity, body weight change; conditions: mice, oral daily dose for 14 days
[2] = test system: cancer cell lines displaying reduced Lamin A/C expression; test: Nuclear morphology of cancer cell lines with reduced Lamin A/C expression (DAPI); assay type: cell-based, human
Source text: FIG. 2: Small molecule Compound 2 rescues nuclear shape defects in various Lamin A/C depleted cells. A) and B) Nuclear shape visualization by DAPI staining of HeLa (A) or RPE-1 (B) cells depleted for Lamin A/C (siLMNA) and treated with various KATi. Scale bars: 50 μm. C) and D) Cell Profiler quantification of nuclear circularity of HeLa (C) or RPE-1 (D) cells from DAPI staining as shown in A) and B) (means of three independent experiments with n>252±s.d). E) Cell cycle profile analysed by flow cytometry. PI: propidium iodide. F) Analysis of Lamin A/C expression levels in indicated cancer cell lines. Bottom panel: Image J quantification of Lamin A/C expression in cancer cells relative to normal RPE-1 cells. G) Representative pictures of DAPI staining showing nuclear shape improvement in low Lamin A/C expressing cancer cells after treatment with Compound 2. Scale bars: 20 μm.
(§1) U2OS and SaOS-2 osteosarcoma cells, HeLa cervical cancer cells, A431 melanoma cells, NCI-SNU5 gastric cancer cells, MRC-5 lung fibroblast cells and Werner syndrome patient-derived SV40 fibroblast cells were grown in Dulbecco's modified Eagle medium (DMEM, Sigma-Aldrich) supplemented with 10% fetal bovine serum (BioSera), 2 mM L-glutamine, 100 U per ml penicillin, 100 μg ml^−1 streptomycin. […] Cells were analysed 48 to 72 hours after transfection.

[3] = test system: primary MRC5 fibroblasts aged in culture; test: Misshapen nuclei in aged MRC5 cells; assay type: cell-based, human; conditions: population doubling 44
Source text: FIG. 10: Remodelin rescues nuclear shape of aged MRC5 cells but not WS cells in a dose dependent manner. A) Misshapen nuclei observed by DAPI staining in MRC5 aged cells in culture, at population doubling 44 (PD44) were rescued by Remodelin. B) Quantification of misshapen nuclei after increasing concentrations of Remodelin (mean of three independent experiments±s.e.m.). C) DAPI staining of non-laminopathic Werner Syndrome cells (WS) showing no nuclear shape improvement upon Remodelin treatment. D) Cell Profiler quantification of misshapen nuclei (mean of three independent experiments±s.d. n>273). Scale bars: 50 μm.
as §1, with “streptomycin. Normal skin primary fibroblasts GM03440 and Hutchinson Gilford Progeria Syndrome (HGPS) skin primary fibroblasts AG11498 and AG06297 were purchased from Coriell Cell Repositories and used between passage number 9-12 and 20-23 respectively. Cells were grown in DMEM supplemented as above.” for “streptomycin.”

HGPS cells = test: Chromatin, nucleolar and SUN1 organization in HGPS cells (IF); assay type: cell-based, human; conditions: Remodelin 1 μM
Description: (§2) The following KAT and KDAC inhibitors were used in the nuclear shape rescue screen, incubating cells with the molecules for 16 hours: trichostatin A (1 μM), sodium butyrate (5 mM), tubacin (10 μM), SAHA (5 μM), curcumin (10 μM), garcinol (50 μM), anacardic acid (1 μM), MB-3 (5 μM), 4-(4-chlorophenyl)-2-(2-cyclopentylidenehydrazinyl)thiazole (Compound 2) (50 μM), 4-(4-chlorophenyl)-2-(2-cyclopentylidene-1-(prop-2-yn-1-yl)hydrazinyl)thiazole (Compound 3) (50 μM) and cyclopentylidene-[4-(4-cyanophenyl)thiazol-2-yl)hydrazine (Compound 1) (Remodelin) (10 to 50 μM). For HGPS cellular fitness assays, Remodelin was incubated at 1 μM for 1 to 10 days, renewing the medium every 3 days. For long-term senescence assay, cells were kept and passaged in medium containing 1 μM Remodelin or DMSO only for 12 population doublings. Senescence was assessed after 8 days of Remodelin treatment when cells were at Population Doubling 12, and then after several weeks of Remodelin treatment, when cells reached Population Doubling 24 using the Senescence β-Galactosidase Staining Kit #9860 from Cell Signaling. Nocodazole, colchicine and latrunculin A (Sigma-Aldrich) were used at 200 ng/ml, 1 μg/ml and 1 μM respectively. Aphidicolin (Sigma-Aldrich) was used at 5 μg/ml for 16 h. Farnesyltransferase inhibitor FTI-277 was purchased from Tocris Bioscience and used at 5 μM. […]

[4] = test system: farnesyltransferase activity (pre-Lamin A cleavage and maturation); test: Lamin A processing by western blotting; assay type: cell-based, human
Description: as §2, with “Signaling.” for “Signaling. Nocodazole, colchicine and latrunculin A (Sigma-Aldrich) were used at 200 ng/ml, 1 μg/ml and 1 μM respectively. Aphidicolin (Sigma-Aldrich) was used at 5 μg/ml for 16 h. Farnesyltransferase inhibitor FTI-277 was purchased from Tocris Bioscience and used at 5 μM.”
Total cell extracts were prepared by scraping cells in SDS lysis buffer (4% SDS, 20% glycerol, and 120 mM Tris-HCl, pH 6.8), boiling for 5 minutes at 95° C., followed by 10 strokes through a 25-gauge needle. […] Detection and quantification was performed with an imager (Odyssey; LI-COR Biosciences).

SMILES | tolerability (body weight change) [1] | nuclear morphology of cancer cell lines [2] | misshapen nuclei of aged MRC5 cells [3] | SUN1 accumulation at the nuclear envelope (HGPS cells) | chromatin and nucleolar organization (H3K9me3 and NAT10 staining) (HGPS cells) | pre-Lamin A processing [4]
Clc1ccc(-c2csc(NN=C3CCCC3)n2)cc1 [Compound 2, 4-(4-Chlorophenyl)-2-(2-cyclopentylidenehydrazinyl)thiazole Hydrochloride Salt] | well tolerated orally, up to high doses of 400 mg/kg/day, without significant decrease of body weight | improved the nuclear morphology of several cancer cell lines |  |  |  | 
N#Cc1ccc(-c2csc(NN=C3CCCC3)n2)cc1 [Compound 1, 4-(4-Cyanophenyl)-2-(2-cyclopentylidenehydrazinyl)thiazole] |  |  | also had this effect on primary MRC5 fibroblasts aged in culture | decreased SUN1 accumulation at the nuclear envelope | improved chromatin and nucleolar organization | did not block pre-Lamin A cleavage and maturation
